Active and inactive are the calls of the source. No cut-off for these calls is given here.
Experiments:
EL4 = experiment: Cytotoxicity against mouse EL4 cells assessed as effect on cell viability at 1 to 10 uM measured after 72 hrs by MTT assay; assay type: cell-based; details: el4, 72 h, dose 1-10 µM
T-cell [1] = experiment: Induction of cell differentiation in anti-CD3/CD28 stimulated naive T-cells assessed as upregulation of Foxp3 mRNA expression at 1 uM measured after 72 hrs by Q-PCR analysis; assay type: functional, cell-based
T-cell [2] = experiment: Induction of cell differentiation in anti-CD3/CD28 stimulated naive T-cells assessed as upregulation of CD4+ CD25+ cell frequency at 1 uM measured after 72 hrs by flow cytometry analysis; assay type: functional, cell-based
Mus musculus [3] = experiment: Antiinflammatory activity in DSS-induced ulcerative colitis mouse model assessed as rescue of colon length shortening at 20 to 40 mg/kg, po administered for 10 consecutive days; assay type: functional, organism-based; details: dose 20-40 mg/kg, time 10.0 day
T-cell [4] = experiment: Induction of cell differentiation in anti-CD3/CD28 stimulated naive T-cells assessed as number of Treg cells at 30 uM measured after 72 hrs by flow cytometry analysis (reference value: 24 %); assay type: functional
T-cell [5] = experiment: Induction of cell differentiation in anti-CD3/CD28 stimulated naive T-cells assessed as number of Treg cells at 3 uM measured after 72 hrs by flow cytometry analysis (reference value: 24 %); assay type: functional
T-cell [6] = experiment: Induction of cell differentiation in anti-CD3/CD28 stimulated naive T-cells assessed as number of Treg cells at 10 uM measured after 72 hrs by flow cytometry analysis (reference value: 24 %); assay type: functional
T-cell [7] = experiment: Induction of cell differentiation in anti-CD3/CD28 stimulated naive T-cells assessed as upregulation of IL-10 mRNA expression at 3 to 30 uM measured after 72 hrs by Q-PCR analysis; assay type: functional, cell-based; details: dose 3-30 µM
Mus musculus [8] = experiment: Induction of Treg cell differentiation in DSS- induced ulcerative colitis mouse model assessed as number of Treg cells in colonic lamina proprias at 20 mg/kg, po administered for 10 consecutive days by flow cytometry analysis (Rvb= 7.97%); assay type: functional; details: time 10 day
Mus musculus [9] = experiment: Induction of Treg cell differentiation in DSS- induced ulcerative colitis mouse model assessed as increase in IL-10 mRNA level at 20 to 40 mg/kg, po administered for 10 consecutive days by Q-PCR analysis; assay type: functional, organism-based; details: dose 20-40 mg/kg, time 10.0 day
T-cell [10] = experiment: Induction of cell differentiation in anti-CD3/CD28 stimulated naive T-cells assessed as upregulation of CD4+ CD25+ cell frequency at 10 uM measured after 72 hrs by flow cytometry analysis; assay type: functional, cell-based
Mus musculus [11] = experiment: Antiinflammatory activity in DSS-induced ulcerative colitis mouse model assessed as reduction in MPO activity at 20 to 40 mg/kg, po administered for 10 consecutive days; assay type: functional, organism-based; details: dose 20-40 mg/kg, time 10.0 day
Mus musculus [12] = experiment: Induction of Treg cell differentiation in DSS- induced ulcerative colitis mouse model assessed as number of Treg cells in spleens at 40 mg/kg, po administered for 10 consecutive days by flow cytometry analysis (Rvb= 6.49%); assay type: functional; details: time 10 day
Mus musculus [13] = experiment: Induction of Treg cell differentiation in DSS- induced ulcerative colitis mouse model assessed as number of Treg cells in mesenteric lymph nodes at 40 mg/kg, po administered for 10 consecutive days by flow cytometry analysis (Rvb= 7.52%); assay type: functional; details: time 10 day
T-cell [14] = experiment: Induction of cell differentiation in anti-CD3/CD28 stimulated naive T-cells assessed as upregulation of Foxp3 expression at 10 uM measured after 72 hrs by Q-PCR analysis; assay type: functional, cell-based
Mus musculus [15] = experiment: Induction of Treg cell differentiation in DSS- induced ulcerative colitis mouse model assessed as number of Treg cells in mesenteric lymph nodes at 20 mg/kg, po administered for 10 consecutive days by flow cytometry analysis (Rvb= 7.52%); assay type: functional; details: time 10 day
Mus musculus [16] = experiment: Antiinflammatory activity in DSS-induced ulcerative colitis mouse model assessed as protection against colon destruction at 20 to 40 mg/kg, po administered for 10 consecutive days by HE staining based histopathological analysis; assay type: functional, organism-based; details: dose 20-40 mg/kg, time 10.0 day
Mus musculus [17] = experiment: Antiinflammatory activity in DSS-induced ulcerative colitis mouse model assessed as protection against inflammation of colons at 20 to 40 mg/kg, po administered for 10 consecutive days by HE staining based histopathological analysis; assay type: functional, organism-based; details: dose 20-40 mg/kg, time 10.0 day
Mus musculus [18] = experiment: Induction of Treg cell differentiation in DSS- induced ulcerative colitis mouse model assessed as number of Treg cells in spleens at 20 mg/kg, po administered for 10 consecutive days by flow cytometry analysis (Rvb= 6.49%); assay type: functional; details: time 10 day
Mus musculus [19] = experiment: Induction of Treg cell differentiation in DSS- induced ulcerative colitis mouse model assessed as number of Treg cells in colonic lamina proprias at 40 mg/kg, po administered for 10 consecutive days by flow cytometry analysis (Rvb= 7.97%); assay type: functional; details: time 10 day
Mus musculus [20] = experiment: Induction of Treg cell differentiation in DSS- induced ulcerative colitis mouse model assessed as increase in Foxp3 mRNA level at 20 to 40 mg/kg, po administered for 10 consecutive days by Q-PCR analysis; assay type: functional, organism-based; details: dose 20-40 mg/kg, time 10.0 day
Mus musculus [21] = experiment: Antiinflammatory activity in DSS-induced ulcerative colitis mouse model assessed as reduction in DAI score a 20 to 40 mg/kg, po administered for 10 consecutive days; assay type: functional, organism-based; details: dose 20-40 mg/kg, time 10.0 day
T-cell [22] = experiment: Induction of cell differentiation in anti-CD3/CD28 stimulated naive T-cells assessed as upregulation of Foxp3 mRNA expression at 3 to 30 uM measured after 72 hrs by Q-PCR analysis; assay type: functional, cell-based; details: dose 3-30 µM

Q: `COc1cc2c(cc1O)CC1c3c(cc(OC)c(O)c3-2)CCN1C(=O)c1ccc([N+](=O)[O-])cc1` (stereo not drawn) was tested. Which Activity (EL4) did it give?
A: Non-Toxic

Q: Which Activity (EL4) does the source give for `COc1cc2c(cc1O)CC1c3c(cc(OC)c(O)c3-2)CCN1Cc1ccc([N+](=O)[O-])cc1` (stereo not drawn) here?
A: Non-Toxic

Q: For `COc1cc2c(cc1O)CC1c3c(cc(OC)c(O)c3-2)CCN1C(=O)c1ccc(Cl)cc1` (stereo not drawn), which Activity (EL4) is on record?
A: Non-Toxic

Q: `COc1cc2c(cc1O)CC1c3c(cc(OC)c(O)c3-2)CCN1Cc1ccc(Cl)cc1` (stereo not drawn) was tested. Which Activity (T-cell [1]) did it give?
A: Active

Q: And the Activity (T-cell [2])?
A: inactive

Q: And the Activity (EL4)?
A: Non-Toxic

Q: How did the Activity (EL4) turn out when `COc1cc(OC)cc(C(=O)N2CCc3cc(OC)c(O)c4c3C2Cc2cc(O)c(OC)cc2-4)c1` (stereo not drawn) was run?
A: Non-Toxic

Q: `COc1cc2c(cc1O)CC1c3c(cc(OC)c(O)c3-2)CCN1C(=O)c1ccc(Br)cc1` (stereo not drawn) was tested. Which Activity (EL4) did it give?
A: Non-Toxic

Q: For `COc1cc2c(cc1O)CC1c3c(cc(OC)c(O)c3-2)CCN1C(=O)c1ccc(C)cc1` (stereo not drawn), which Activity (EL4) is on record?
A: Non-Toxic

Q: For `COc1cc2c(cc1O)C[C@@H]1NCCc3cc(OC)c(O)c-2c31`, which Activity (Mus musculus [3]) is on record?
A: Active

Q: What about the Activity (T-cell [4]) of the same molecule?
A: 44.2%

Q: And the Activity (T-cell [5])?
A: 24.4%

Q: What about the Activity (T-cell [6]) of the same molecule?
A: 31.8%

Q: What about the Activity (T-cell [7]) of the same molecule?
A: Active

Q: And the Activity (Mus musculus [8])?
A: 12.25%

Q: And the Activity (Mus musculus [9])?
A: Active

Q: What about the Activity (T-cell [10]) of the same molecule?
A: Active

Q: What about the Activity (Mus musculus [11]) of the same molecule?
A: Active

Q: What about the Activity (Mus musculus [12]) of the same molecule?
A: 7.41%

Q: And the Activity (Mus musculus [13])?
A: 14.89%

Q: And the Activity (EL4)?
A: Non-Toxic

Q: And the Activity (T-cell [14])?
A: Active

Q: And the Activity (Mus musculus [15])?
A: 9.8%

Q: What about the Activity (Mus musculus [16]) of the same molecule?
A: Active

Q: What about the Activity (Mus musculus [17]) of the same molecule?
A: Active

Q: And the Activity (Mus musculus [18])?
A: 6.58%

Q: And the Activity (Mus musculus [19])?
A: 15.87%

Q: What about the Activity (Mus musculus [20]) of the same molecule?
A: Active

Q: What about the Activity (Mus musculus [21]) of the same molecule?
A: Active

Q: What about the Activity (T-cell [22]) of the same molecule?
A: Active

Q: How did the Activity (EL4) turn out when `COc1cc2c(cc1O)CC1c3c(cc(OC)c(O)c3-2)CCN1Cc1ccc(F)cc1` (stereo not drawn) was run?
A: Non-Toxic

Q: For `COc1cc(CN2CCc3cc(OC)c(O)c4c3C2Cc2cc(O)c(OC)cc2-4)cc(OC)c1` (stereo not drawn), which Activity (EL4) is on record?
A: Non-Toxic

Q: With `COc1cc2c(cc1O)CC1c3c(cc(OC)c(O)c3-2)CCN1Cc1ccc(Br)cc1` (stereo not drawn) as the molecule, how does the Activity (EL4) read?
A: Non-Toxic
